Experimental data as given in patent US10689341B2, “Small molecule N-(alpha-peroxy) indole compounds and methods of use” (King Abdullah University of Science and Technology, priority 2016, dated 2020).

Assay: Stability in CDC13 in the NMR tube at room temperature
Assay type: physicochemical
Settings: decomposed in one day

COc1ccc2c(c1)c(CCNC(C)=O)cn2C(CC(C)C)OOC(C)(C)CC(OC(C)=O)OC(C)=O (stereo not shown) [Compound 7]
stability in CDC13: not be stable
